# How the values were obtained:
# c-KIT = target: T1, c-KIT (Homo sapiens, UniProt P10721); test: Inhibition of c-KIT, radiometric filter-binding assay; format: biochemical; settings: 700 μM ATP, 0.5 mg/mL pE4Y, room temperature
# T1 construct: 0.02% BSA and 25 nM c-KIT
# Method in brief: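 Radiometric filter-binding: 25 nM c-KIT (enzyme in the Solution 2 mix) with poly(Glu,Tyr) 4:1 substrate at 0.5 mg/mL and [γ-^33P]ATP at 700 μM (both final), in HEPES pH 7.5/MgCl2/NaCl/DTT/BSA with 2.5% DMSO. Incubated 20 min at room temperature, stopped with TCA, and ^33P incorporation counted on filters. 12-point titration, final compound typically 0.01-5 μM; IC50 or Ki from curve fit.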
# JAK3 = target: T2, JAK3 (Homo sapiens, UniProt P52333); test: JAK3 inhibition assay (ELISA, Poly (Glu, Ala, Tyr) coated plates); format: biochemical; settings: 2 mM ATP, 60 minutes at 30° C.
# T2 sequence (P52333 1-1124): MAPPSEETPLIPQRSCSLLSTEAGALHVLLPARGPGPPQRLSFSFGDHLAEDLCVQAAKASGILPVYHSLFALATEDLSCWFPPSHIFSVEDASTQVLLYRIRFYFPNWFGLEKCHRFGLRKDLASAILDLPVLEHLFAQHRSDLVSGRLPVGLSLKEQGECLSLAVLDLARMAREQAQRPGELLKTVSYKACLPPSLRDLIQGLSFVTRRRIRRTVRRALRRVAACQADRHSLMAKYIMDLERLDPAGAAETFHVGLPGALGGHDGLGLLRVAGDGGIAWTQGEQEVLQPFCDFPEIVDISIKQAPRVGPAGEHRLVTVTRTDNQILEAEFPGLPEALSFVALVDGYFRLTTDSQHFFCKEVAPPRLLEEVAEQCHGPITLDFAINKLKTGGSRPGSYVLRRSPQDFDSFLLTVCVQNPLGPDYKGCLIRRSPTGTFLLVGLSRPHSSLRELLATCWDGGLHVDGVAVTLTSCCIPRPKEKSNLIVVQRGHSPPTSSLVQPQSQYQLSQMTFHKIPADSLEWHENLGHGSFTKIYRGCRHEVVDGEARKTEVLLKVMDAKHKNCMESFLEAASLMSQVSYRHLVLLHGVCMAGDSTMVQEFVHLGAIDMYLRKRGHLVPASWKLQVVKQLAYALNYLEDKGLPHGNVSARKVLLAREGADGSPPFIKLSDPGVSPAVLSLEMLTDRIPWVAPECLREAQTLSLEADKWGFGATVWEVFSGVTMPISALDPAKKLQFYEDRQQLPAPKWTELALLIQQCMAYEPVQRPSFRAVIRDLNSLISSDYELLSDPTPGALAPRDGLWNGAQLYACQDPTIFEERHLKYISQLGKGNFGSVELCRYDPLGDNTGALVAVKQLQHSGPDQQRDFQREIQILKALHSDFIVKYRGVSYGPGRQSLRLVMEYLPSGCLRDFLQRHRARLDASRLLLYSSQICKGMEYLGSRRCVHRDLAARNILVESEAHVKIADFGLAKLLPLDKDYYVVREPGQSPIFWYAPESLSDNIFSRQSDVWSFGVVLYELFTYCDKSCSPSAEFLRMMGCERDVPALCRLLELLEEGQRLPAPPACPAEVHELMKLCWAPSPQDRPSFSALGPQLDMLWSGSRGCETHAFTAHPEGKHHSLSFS
# Method in brief: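 ELISA on Poly(Glu,Ala,Tyr) 6:3:1-coated plates with 2 mM ATP and 5 mM MgCl2. JAK enzyme started the reaction, run 60 min at 30° C. Phosphotyrosine was detected with HRP-conjugated 4G10 antibody and TMB, read at 450 nm, and IC50 was derived from optical densities.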
# T1 sequence (P10721 26-976): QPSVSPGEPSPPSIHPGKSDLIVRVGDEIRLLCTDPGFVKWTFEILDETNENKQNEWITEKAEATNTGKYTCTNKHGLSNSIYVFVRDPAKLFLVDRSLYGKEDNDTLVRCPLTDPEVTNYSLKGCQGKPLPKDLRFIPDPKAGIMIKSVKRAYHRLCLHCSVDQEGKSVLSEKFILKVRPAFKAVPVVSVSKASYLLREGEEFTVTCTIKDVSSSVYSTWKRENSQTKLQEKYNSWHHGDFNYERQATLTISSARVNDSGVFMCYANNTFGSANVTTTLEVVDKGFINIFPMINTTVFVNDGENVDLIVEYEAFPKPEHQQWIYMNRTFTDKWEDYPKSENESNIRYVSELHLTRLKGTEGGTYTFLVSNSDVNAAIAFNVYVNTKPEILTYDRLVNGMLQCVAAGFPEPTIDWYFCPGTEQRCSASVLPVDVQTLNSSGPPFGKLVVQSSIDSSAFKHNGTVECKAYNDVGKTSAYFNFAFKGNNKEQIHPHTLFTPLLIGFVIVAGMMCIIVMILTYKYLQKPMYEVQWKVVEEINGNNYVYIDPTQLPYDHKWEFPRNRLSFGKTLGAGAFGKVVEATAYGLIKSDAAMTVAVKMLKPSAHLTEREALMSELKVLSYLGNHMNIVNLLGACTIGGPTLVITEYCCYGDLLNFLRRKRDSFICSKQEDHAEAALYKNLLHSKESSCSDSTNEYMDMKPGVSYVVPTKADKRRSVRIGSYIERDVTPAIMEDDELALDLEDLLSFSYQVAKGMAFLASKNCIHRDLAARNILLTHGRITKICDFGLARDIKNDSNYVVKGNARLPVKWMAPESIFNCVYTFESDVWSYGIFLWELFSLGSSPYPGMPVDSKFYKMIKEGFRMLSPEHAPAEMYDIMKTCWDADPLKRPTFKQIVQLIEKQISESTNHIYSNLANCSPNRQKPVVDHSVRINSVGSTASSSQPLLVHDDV
SMILES,Ki (c-KIT) [µM],Ki (JAK3) [µM]
"CN(C)Cc1ccc(-c2cnc3[nH]cc(-c4oncc4-c4cccc(F)c4F)c3c2)cc1 [Compound 91, (4-{3-[4-(2,3-Difluoro-phenyl)-isoxazol-5-yl]-1H-pyrrolo[2,3-b]pyridin-5-yl}-benzyl)-dimethyl-amine]",< 0.2,< 0.2
"Fc1cccc(-c2cnoc2-c2c[nH]c3ncc(-c4ccc(CN5CCOCC5)cc4)cc23)c1F [Compound 92, 3-[4-(2,3-Difluoro-phenyl)-isoxazol-5-yl]-5-(4-morpholin-4-ylmethyl-phenyl)-1H-pyrrolo[2,3-b]pyridine]",< 0.2,< 0.2
"Fc1cccc(-c2cnoc2-c2c[nH]c3ncc(-c4ccc(CN5CCCC5)cc4)cc23)c1F [Compound 93, 3-[4-(2,3-Difluoro-phenyl)-isoxazol-5-yl]-5-(4-pyrrolidin-1-ylmethyl-phenyl)-1H-pyrrolo[2,3-b]pyridine]",< 0.2,< 0.2
"CN1CCN(Cc2ccc(-c3cnc4[nH]cc(-c5oncc5-c5cccc(F)c5F)c4c3)cc2)CC1 [Compound 94, 3-[4-(2,3-Difluoro-phenyl)-isoxazol-5-yl]-5-[4-(4-methyl-piperazin-1-ylmethyl)-phenyl]-1H-pyrrolo[2,3-b]pyridine]",< 0.2,< 0.2
"CC(=O)Nc1ccc(-c2cnc3[nH]cc(-c4oncc4-c4cccc(F)c4F)c3c2)cc1 [Compound 95, N-(4-{3-[4-(2,3-Difluoro-phenyl)-isoxazol-5-yl]-1H-pyrrolo[2,3-b]pyridin-5-yl}-phenyl)-acetamide]",< 0.2,< 0.2
"COC(=O)c1cnc2[nH]cc(-c3oncc3-c3cccc(F)c3F)c2c1 [Compound 105, 3-[4-(2,3-Difluoro-phenyl)-isoxazol-5-yl]-1H-pyrrolo[2,3-b]pyridine-5-carboxylic acid methyl ester]",< 0.2,< 0.2
"Cc1noc(-c2c[nH]c3ncc(-c4ccc(N5CCN(C)CC5)cc4)cc23)c1-c1cccc(F)c1F [Compound 135, 3-[4-(2,3-Difluoro-phenyl)-3-methyl-isoxazol-5-yl]-5-[4-(4-methyl-piperazin-1-yl)-phenyl]-1H-pyrrolo[2,3-b]pyridine]",< 0.2,< 0.2
"Fc1cccc(-c2cnoc2-c2c[nH]c3ncc(C4=CCC(NCc5ccccc5)CC4)cc23)c1F (centres unmarked) [Compound 136, Benzyl-(4-{3-[4-(2,3-difluoro-phenyl)-isoxazol-5-yl]-1H-pyrrolo[2,3-b]pyridin-5-yl}-cyclohex-3-enyl)-amine]",< 0.2,< 0.2
"NC1CC=C(c2cnc3[nH]cc(-c4oncc4-c4cccc(F)c4F)c3c2)CC1 (centres unmarked) [Compound 137, 4-{3-[4-(2,3-Difluoro-phenyl)-isoxazol-5-yl]-1H-pyrrolo [2,3-b]pyridin-5-yl}-cyclohex-3-enylamine]",< 0.2,< 0.2
"CN(C)C1CC=C(c2cnc3[nH]cc(-c4oncc4-c4cccc(F)c4F)c3c2)CC1 (centres unmarked) [Compound 138, (4-{3-[4-(2,3-Difluoro-phenyl)-isoxazol-5-yl]-1H-pyrrolo[2,3-b]pyridin-5-yl}-cyclohex-3-enyl)-dimethyl-amine]",< 0.2,< 0.2

# Further lines, results first:
Ki (c-KIT) [µM],Ki (JAK3) [µM],SMILES
< 0.2,< 0.2,"CN(C)c1ccc(-c2cnc3[nH]cc(-c4oncc4-c4cccc(F)c4F)c3c2)cc1 [Compound 88, (4-{3-[4-(2,3-Difluoro-phenyl)-isoxazol-5-yl]-1H-pyrrolo[2,3-b]pyridin-5-yl}-phenyl)-dimethyl-amine]"
< 0.2,< 0.2,"Nc1ccc(-c2cnc3[nH]cc(-c4oncc4-c4cccc(F)c4F)c3c2)cc1 [Compound 90, 4-{3-[4-(2,3-Difluoro-phenyl)-isoxazol-5-yl]-1H-pyrrolo [2,3-b]pyridin-5-yl}-phenylamine]"
< 0.2,< 0.2,"COc1cncc(-c2cnc3[nH]cc(-c4oncc4-c4cccc(F)c4F)c3c2)c1 [Compound 96, 3-[4-(2,3-Difluoro-phenyl)-isoxazol-5-yl]-5-(5-methoxy-pyridin-3-yl)-1H-pyrrolo[2,3-b]pyridine]"
< 0.2,< 0.2,"Clc1cccc(-c2cnoc2-c2c[nH]c3ncc(-c4cccnc4)cc23)c1Cl [Compound 99, 3-[4-(2,3-Dichloro-phenyl)-isoxazol-5-yl]-5-pyridin-3-yl-1H-pyrrolo[2,3-b]pyridine]"
< 0.2,0.2 to 1,"CN(C)c1ccc(-c2cnc3[nH]cc(-c4nncn4-c4cccc(F)c4F)c3c2)cc1 [Compound 106, (4-{3-[4-(2,3-Difluoro-phenyl)-4H-[1,2,4]triazol-3-yl]-1H-pyrrolo[2,3-b]pyridin-5-yl}-phenyl)-dimethyl-amine]"
< 0.2,0.2 to 1,"Fc1cccc(-n2cnnc2-c2c[nH]c3ncc(-c4ccc(CN5CCOCC5)cc4)cc23)c1F [Compound 109, 3-[4-(2,3-Difluoro-phenyl)-4H-[1,2,4]triazol-3-yl]-5-(4-morpholin-4-ylmethyl-phenyl)-1H-pyrrolo[2,3-b]pyridine]"
< 0.2,0.2 to 1,"CN1CCN(c2ccc(-c3cnc4[nH]cc(-c5nncn5-c5cccc(F)c5F)c4c3)cc2)CC1 [Compound 110, 3-[4-(2,3-Difluoro-phenyl)-4H-[1,2,4]triazol-3-yl]-5-[4-(4-methyl-piperazin-1-yl)-phenyl]-1H-pyrrolo[2,3-b]pyridine]"
0.2 to 1,1 to 12.5,CN1CCN(c2ccc(-c3cnc4[nH]cc(-c5nncn5-c5cccc(F)c5F)c4c3)cn2)CC1 [Compound 112]
0.2 to 1,1 to 12.5,"Fc1cccc(-n2cnnc2-c2c[nH]c3ncc(-c4cccnc4)cc23)c1F [Compound 113, 3-[4-(2,3-Difluoro-phenyl)-4H-[1,2,4]triazol-3-yl]-5-pyridin-3-yl-1H-pyrrolo[2,3-b]pyridine]"
< 0.2,1 to 12.5,"Fc1cccc(-n2cnnc2-c2c[nH]c3ncc(-c4ccncc4)cc23)c1F [Compound 114, 3-[4-(2,3-Difluoro-phenyl)-4H-[1,2,4]triazol-3-yl]-5-pyridin-4-yl-1H-pyrrolo[2,3-b]pyridine]"
0.2 to 1,1 to 12.5,"Fc1cccc(-n2cnnc2-c2c[nH]c3ncc(-c4ccc(N5CCC[C@H]5CN5CCCC5)nc4)cc23)c1F [Compound 115, 3-[4-(2,3-Difluoro-phenyl)-4H-[1,2,4]triazol-3-yl]-5-[6-(2-pyrrolidin-1-ylmethyl-pyrrolidin-1-yl)-pyridin-3-yl]-1H-pyrrolo[2,3-b]pyridine]"
0.2 to 1,0.2 to 1,"OC1CCN(c2ccc(-c3cnc4[nH]cc(-c5nncn5-c5cccc(F)c5F)c4c3)cn2)CC1 [Compound 116, 5′-{3-[4-(2,3-Difluoro-phenyl)-4H-[1,2,4]triazol-3-yl]-1H-pyrrolo[2,3-b]pyridin-5-yl}-3,4,5,6-tetrahydro-2H-[1,2′]bi-pyridinyl-4-ol]"
0.2 to 1,1 to 12.5,"CN1CCCN(c2ccc(-c3cnc4[nH]cc(-c5nncn5-c5cccc(F)c5F)c4c3)cn2)CC1 [Compound 117, 3-[4-(2,3-Difluoro-phenyl)-4H-[1,2,4]triazol-3-yl]-5-[6-(4-methyl-[1,4]diazepan-1-yl)-pyridin-3-yl]-1H-pyrrolo [2,3-b]-pyridine]"
0.2 to 1,0.2 to 1,"Fc1cccc(-n2cnnc2-c2c[nH]c3ncc(-c4ccc(N5CCCC5)nc4)cc23)c1F [Compound 118, 3-[4-(2,3-Difluoro-phenyl)-4H-[1,2,4]triazol-3-yl]-5-(6-pyrrolidin-1-yl-pyridin-3-yl)-1H-pyrrolo[2,3-b]pyridine]"
0.2 to 1,1 to 12.5,"CN(C)CCNc1ccc(-c2cnc3[nH]cc(-c4nncn4-c4cccc(F)c4F)c3c2)cn1 [Compound 119, N′-(5-{3-[4-(2,3-Difluoro-phenyl)-4H-[1,2,4]triazol-3-yl]-1H-pyrrolo[2,3-b]pyridin-5-yl}-pyridin-2-yl)-N,N-dimethyl-ethane-1,2-diamine]"
